{"source": "patent US20030114534A1", "about": "“Pharmaceutical preparation for apthous ulcers” (priority 2001, published 2003)", "origin": "cited, not measured here", "system": "apthous lesions", "conditions": "applied locally, 250 mg. in 10 ml. of water, three times a day", "data": [{"compound": "CN(C)[C@@H]1C(O)=C(C(N)=O)C(=O)[C@@]2(O)C(O)=C3C(=O)c4c(O)ccc(Cl)c4[C@@](C)(O)[C@H]3C[C@@H]12", "note": "[Aureomycin]", "values": [{"measurement": "analgesic effect lasting", "value": "one-half to two"}]}]}
